Assay results as given in article PMC4684791 (Bioorganic & medicinal chemistry letters, 2015).

Test: Microsomal stability assay
Format: in vitro ADME, rat

SMILES: COc1cc(NC(=O)c2ccccn2)ccc1Cl [Compound 2, ML128]
- Stability κ (decay constant, slope of log concentration vs time profile) (rat liver microsome, t1/2=ln2/κ): 0.116 min^−1
- half-life (rat, liver microsomes): 5.99 min
